What was measured:
Format in all cases: physicochemical
[1] = Experimental Example 3: stability of tablets with/without sodium ascorbate, 40° C. 1 month, HPLC
Description: (§1) Measurement of the contents of the compound A and the related substances was carried out by a HPLC method under the following conditions: • solvent: water/acetonitrile mixed solution (4:6), • measurement wavelength: 287 nm, • column: XTerra MS C18 3.5 μm 4.6 mm×150 mm (manufactured by Waters Co., Ltd.), • mobile phase: a gradient of 10 mM ammonium acetate solution/acetonitrile mixed solution (4:3) and acetonitril/10 mM ammonium acetate solution mixed solution (9:1), and • oven temperature: around 40° C.
The equilibrium moisture content (ERH) of each tablet was measured by the following method. The results were 3.0% and 3.4%, respectively.
These tablets were put in a capped glass bottle and sealed. After storage at 40° C. for 1 month, the contents of the compound A and the related substances were measured. The content of the compound A was measured in the same manner as the measurement method in Experimental Example 2, except that a water/acetonitrile mixed solution (4:6) was used as a solvent. The measurement of the related substances was carried out in the same manner as […].

[2] = Experimental Example 2: stability of tablet vs bulk powder, 60° C. 2 weeks, HPLC
Description: The tablet obtained in Example 1 was put in a capped glass bottle and sealed. After storage at 60° C. for 2 weeks, the contents of the compound A and the related substances in the tablet were measured. Similarly, the bulk powder used for production of the tablet in Example 1 was stored under the same conditions and then the contents of the compound A and the related substances were measured. A comparison of stabilities between the formulated tablet and the bulk powder was made.
as §1

[3] = Experimental Example 1: residual ratio of bulk powders after storage; settings: bulk powder left at 40° C. and 75% RH in atmospheric air for 1 month
Description: After the bulk powder of the compound A and sodium ascorbate were left at 40° C. and 75% RH in atmospheric air for 1 month, their residual ratios were measured. As a result, the residual ratio of the compound A was 89.7% (W/W) and the residual ratio of sodium ascorbate was 99.0% (W/W).
The quantitative determination of the compound A was carried out by a HPLC method under the following conditions: • solvent: acetonitrile, • measurement wavelength: 287 nm, • column: CHIRALCEL OJ-R 4.6×150 mm (manufactured by Daicel Chemical Industries, Ltd. CPI Co.), • mobile phase: a mixed (16:9) solution of acetonitrile/10 mM ammonium acetate aqueous solution, • oven temperature: around 25° C.
The quantitative determination of sodium ascorbate was carried out by iodine titration method (solvent: metaphosphoric acid solution (1→50), indicator: starch reagent solution).

[4] = content in the bulk used for Examples 5 and 7
[5] = initial: immediately after production
[6] = sealed capped glass bottle, after 2-week storage at 60° C.

Row | Related substance C [1, 4] [%] | Related substance D [1, 4] [%] | Related substance E [1, 4] [%] | related substance A [1, 4] [%] | related substance B [1, 4] [%] | related substance A ([1]; content in the bulk used, last item of the list A to F (second mention of A)) [%] | Related substance C [2, 5] [%] | Related substance D [2, 5] [%] | Related substance E [2, 5] [%] | Related substance F [2, 5] [%] | related substance A [2, 5] [%] | residual ratio [2, 5] [%] | Related substance C [2, 6] [%] | Related substance D [2, 6] [%] | Related substance E [2, 6] [%] | Related substance F [2, 6] [%] | related substance A [2, 6] [%] | related substance B [2, 6] [%] | residual ratio [2, 6] [%] | residual ratio [3] | Compound
1 | 0.40 | 0.43 | 0.08 | 0.31 | 0.08 | 2.69 | 0.24 | 0.32 | 0.13 | 3.01 | 0.46 | 100.0 | 1.13 | 2.12 | 0.78 | 10.41 | 1.74 | 0.59 | 87.9 | 89.7 % (W/W) | COc1cc2c(cc1OC)CN(c1c(C)c(C)c3c(c1C)[C@@H](c1ccc(C)cc1)C(C)(C)O3)C2 [compound A, (R)-(+)-5,6-dimethoxy-2-[2,2,4,6,7-pentamethyl-3-(4-methylphenyl)-2,3-dihydro-1-benzofuran-5-yl]isoindoline]
2 | – | – | – | – | – | – | – | – | – | – | – | – | – | – | – | – | – | – | – | 99.0 % (W/W) | O=C1O[C@H]([C@@H](O)CO)C([O-])=C1O.[Na+] [sodium ascorbate]

Reference: patent US20050118202A1, “Solid compositions containing compounds unstable to oxygen and method for stabilization thereof” (priority 2001, published 2005)
